Measurements: patent publication US20230265151A1, “GIP/GLP1 CO-AGONIST COMPOUNDS” (priority 2020, published 2023)
Like-named read-outs stand apart in the source and are kept apart here. *1 amine or outer side, *2 acyl side, *3 side chain or, on linkers, in order; H or OH if unused. Where a SMILES comes first, the peptide text is derived from it. Side-chain parts run from the residue outwards. [ ]: non-standard residue; d: D form. The star is where a group is joined. αMePhe(2-F) = C[C@](N)(Cc1ccccc1F)C(=O)O; γGlu = O=C(O)[C@H](CCC(=O)[*:2])N[*:1]; C14 diacid = O=C(O)CCCCCCCCCCCCC(=O)*; αMeY = C[C@](N)(Cc1ccc(O)cc1)C(=O)O; 4Pal = N[C@@H](Cc1ccncc1)C(=O)O; αMeL = CC(C)C[C@](C)(N)C(=O)O; Orn = NCCC[C@H](N)C(=O)O; AEEA = NCCOCCOCC(=O)O; Aib = CC(C)(N)C(=O)O

Tests used:
Format in all cases: cell-based
hGCGR = molecular target: T1, hGCGR (Homo sapiens, UniProt P47871); assay: Functional cAMP formation (HTRF) in HEK-293 clonal cells expressing hGCGR, 0.1% bovine casein, without or with 1.0% human serum albumin; settings: geometric mean
T1 construct: expressed in transfected cells
Method in brief: (§1)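 Cells were stimulated with peptide for 30 min at 37° C, then intracellular cAMP was measured by competitive HTRF (665/620 nm ratio) and converted to nM using a cAMP standard curve. Relative EC50 and Emax came from four-parameter logistic fits of percent maximal response against peptide concentration.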

hGIPR = molecular target: T2, hGIPR (Homo sapiens, UniProt P48546); assay: Functional cAMP formation (HTRF) in HEK-293 clonal cells expressing hGIPR, 0.1% bovine casein, without or with 1.0% human serum albumin; settings: for EC50: geometric mean
T2 construct: expressed in transfected cells
T2 sequence (P48546 22-466): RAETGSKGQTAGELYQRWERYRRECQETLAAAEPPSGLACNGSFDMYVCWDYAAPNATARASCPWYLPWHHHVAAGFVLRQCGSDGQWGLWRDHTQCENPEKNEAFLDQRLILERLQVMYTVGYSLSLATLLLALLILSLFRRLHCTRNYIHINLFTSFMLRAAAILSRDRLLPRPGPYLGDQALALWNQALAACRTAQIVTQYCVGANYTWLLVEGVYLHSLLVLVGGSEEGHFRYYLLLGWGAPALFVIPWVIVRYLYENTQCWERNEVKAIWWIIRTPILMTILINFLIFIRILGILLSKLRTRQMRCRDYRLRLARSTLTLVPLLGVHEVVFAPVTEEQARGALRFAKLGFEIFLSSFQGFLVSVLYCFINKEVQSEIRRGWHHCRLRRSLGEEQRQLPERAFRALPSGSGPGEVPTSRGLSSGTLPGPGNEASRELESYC
Method in brief: as §1

hGLP-1R = hGLP-1R (Homo sapiens, UniProt P43220); assay: Functional cAMP formation (HTRF) in HEK-293 clonal cells expressing hGLP-1R, 0.1% bovine casein, without or with 1.0% human serum albumin; parameters: expressed in transfected cells; settings: for EC50: geometric mean
Method in brief: as §1

T1 sequence (P47871 26-477): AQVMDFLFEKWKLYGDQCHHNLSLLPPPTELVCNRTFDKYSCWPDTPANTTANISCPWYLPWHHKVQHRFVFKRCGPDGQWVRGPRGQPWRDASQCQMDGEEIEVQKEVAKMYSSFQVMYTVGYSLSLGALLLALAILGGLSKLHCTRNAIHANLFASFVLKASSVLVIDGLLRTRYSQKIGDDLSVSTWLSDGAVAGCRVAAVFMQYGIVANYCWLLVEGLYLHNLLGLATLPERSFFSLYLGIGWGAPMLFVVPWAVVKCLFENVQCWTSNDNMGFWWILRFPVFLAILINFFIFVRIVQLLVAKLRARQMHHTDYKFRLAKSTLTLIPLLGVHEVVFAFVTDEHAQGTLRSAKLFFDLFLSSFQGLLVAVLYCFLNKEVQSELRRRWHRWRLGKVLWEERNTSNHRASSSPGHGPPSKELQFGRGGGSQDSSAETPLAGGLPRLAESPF
Chain of hGLP-1R (P43220 24-463): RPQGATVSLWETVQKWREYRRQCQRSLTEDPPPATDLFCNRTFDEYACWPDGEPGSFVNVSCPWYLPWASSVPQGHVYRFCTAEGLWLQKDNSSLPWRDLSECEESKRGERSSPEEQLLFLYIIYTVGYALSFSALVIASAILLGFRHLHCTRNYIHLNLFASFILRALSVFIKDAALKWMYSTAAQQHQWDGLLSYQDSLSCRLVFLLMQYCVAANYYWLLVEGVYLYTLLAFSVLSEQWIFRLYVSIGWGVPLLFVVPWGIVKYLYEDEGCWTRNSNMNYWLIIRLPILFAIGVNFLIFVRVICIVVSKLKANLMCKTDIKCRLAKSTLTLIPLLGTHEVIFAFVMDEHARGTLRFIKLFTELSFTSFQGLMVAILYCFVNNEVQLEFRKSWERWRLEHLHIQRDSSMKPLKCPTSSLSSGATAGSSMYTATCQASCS

| SMILES | EC50 (hGCGR; 0.1% bovine casein and 1.0% human serum albumin, 37° C., read-out: hGCGR EC50, nM (SEM, n)) | EC50 (hGCGR; cAMP, incubated at 37° C., 0.1% bovine casein (no human serum albumin), read-out: hGCGR EC50, nM (SEM, n)) | EC50 (hGIPR; 0.1% bovine casein and 1.0% human serum albumin, 37° C., read-out: hGIPR EC50, nM (SEM, n)) | Emax (hGIPR; HEK293, 0.1% bovine casein and 1.0% human serum albumin, 37° C., percent of maximal response to GIP(1-42)NH2, read-out: hGIPR Emax, % ± SEM) | Emax (hGIPR; HEK293, percent of maximal response to GIP(1-42)NH2, 37° C., 0.1% bovine casein, arithmetic mean, read-out: hGIPR Emax, % ± SEM) | EC50 (hGIPR; cAMP, incubated at 37° C., 0.1% bovine casein (no human serum albumin), read-out: hGIPR EC50, nM (SEM, n)) | EC50 (hGLP-1R; 0.1% bovine casein and 1.0% human serum albumin, 37° C., read-out: hGLP-1R EC50, nM (SEM, n)) | Emax (hGLP-1R; HEK293, 0.1% bovine casein and 1.0% human serum albumin, 37° C., percent of maximal response to GLP-1(7-36)NH2, read-out: hGLP-1R Emax, % ± SEM) | Emax (hGLP-1R; HEK293, percent of maximal response to GLP-1(7-36)NH2, 37° C., 0.1% bovine casein, arithmetic mean, read-out: hGLP-1R Emax, % ± SEM) | EC50 (hGLP-1R; cAMP, incubated at 37° C., 0.1% bovine casein (no human serum albumin), read-out: hGLP-1R EC50, nM (SEM, n)) | EC50 (hGCGR; hGCGR EC50, nM (SEM, n), 0.1% bovine casein and 1.0% human serum albumin, 37° C.) | EC50 (hGCGR; hGCGR EC50, nM (SEM, n), cAMP, incubated at 37° C., 0.1% bovine casein (no human serum albumin)) | Emax (hGIPR; HEK293, read-out: hGIPR Emax, % ± SEM, 0.1% bovine casein and 1.0% human serum albumin, 37° C., percent of maximal response to GIP(1-42)NH2) | Emax (hGIPR; HEK293, read-out: hGIPR Emax, % ± SEM, percent of maximal response to GIP(1-42)NH2, 37° C., 0.1% bovine casein, arithmetic mean) | EC50 (hGIPR; hGIPR EC50, nM (SEM, n), 0.1% bovine casein and 1.0% human serum albumin, 37° C.) | Emax (hGLP-1R; HEK293, read-out: hGLP-1R Emax, % ± SEM, 0.1% bovine casein and 1.0% human serum albumin, 37° C., percent of maximal response to GLP-1(7-36)NH2) | EC50 (hGLP-1R; hGLP-1R EC50, nM (SEM, n), 0.1% bovine casein and 1.0% human serum albumin, 37° C.) |
| --- | --- | --- | --- | --- | --- | --- | --- | --- | --- | --- | --- | --- | --- | --- | --- | --- | --- |
| CC[C@H](C)[C@H](NC(=O)[C@H](CC(C)C)NC(=O)[C@](C)(Cc1ccc(O)cc1)NC(=O)[C@H](CCCCNC(=O)COCCOCCNC(=O)COCCOCCNC(=O)CC[C@H](NC(=O)CCCCCCCCCCCCC(=O)O)C(=O)O)NC(=O)[C@@H](NC(=O)[C@H](Cc1ccccc1)NC(=O)[C@H](CCC(=O)O)NC(=O)C(C)(C)NC(=O)[C@H](CCC(N)=O)NC(=O)[C@H](C)NC(=O)[C@H](CCCCNC(=O)COCCOCCNC(=O)COCCOCCNC(=O)CC[C@H](NC(=O)CCCCCCCCCCCCC(=O)O)C(=O)O)NC(=O)[C@H](CCCN)NC(=O)[C@H](CC(=O)O)NC(=O)[C@H](CC(C)C)NC(=O)[C@](C)(CC(C)C)NC(=O)[C@@H](NC(=O)[C@H](CO)NC(=O)[C@H](Cc1ccncc1)NC(=O)[C@H](CC(=O)O)NC(=O)[C@H](CO)NC(=O)[C@@H](NC(=O)[C@](C)(Cc1ccccc1F)NC(=O)[C@@H](NC(=O)CNC(=O)[C@H](CCC(=O)O)NC(=O)C(C)(C)NC(=O)[C@@H](N)Cc1ccc(O)cc1)[C@@H](C)O)[C@@H](C)O)[C@@H](C)CC)[C@@H](C)CC)C(=O)N[C@@H](CCC(=O)O)C(=O)NCC(=O)N[C@@H](CCCN)C(N)=O [Example 190] (H-Y[Aib]EGT[αMePhe(2-F)]TSD[4Pal]SI[αMeL]LD[Orn]K([AEEA-AEEA-γGlu-C14 diacid])AQ[Aib]EFIK([AEEA-AEEA-γGlu-C14 diacid])[αMeY]LIEG[Orn]-NH2; N-terminus assumed) | > 9950 nM | > 9950 nM | 1.55 nM | 82.8 ± 3.36% | 94.5 ± 0.611% | 0.024 nM | 28.9 nM | 112 ± 8.5% | 98.9 ± 4.64% | 0.303 nM | – | – | – | – | – | – | – |
| CC[C@H](C)[C@H](NC(=O)[C@H](CCCN)NC(=O)[C@H](CC(=O)O)NC(=O)[C@H](CC(C)C)NC(=O)[C@](C)(CC(C)C)NC(=O)[C@@H](NC(=O)[C@H](CO)NC(=O)[C@H](Cc1ccncc1)NC(=O)[C@H](CC(=O)O)NC(=O)[C@H](CO)NC(=O)[C@@H](NC(=O)[C@](C)(Cc1ccccc1F)NC(=O)[C@@H](NC(=O)CNC(=O)[C@H](CCC(=O)O)NC(=O)C(C)(C)NC(=O)[C@@H](N)Cc1ccc(O)cc1)[C@@H](C)O)[C@@H](C)O)[C@@H](C)CC)C(=O)N[C@@H](C)C(=O)N[C@@H](CCC(N)=O)C(=O)NC(C)(C)C(=O)N[C@@H](CCCCNC(=O)COCCOCCNC(=O)COCCOCCNC(=O)CCCCCCCCCCCCC(=O)O)C(=O)N[C@@H](Cc1ccccc1)C(=O)N[C@H](C(=O)N[C@@H](CCCCNC(=O)COCCOCCNC(=O)COCCOCCNC(=O)CCCCCCCCCCCCC(=O)O)C(=O)N[C@@](C)(Cc1ccc(O)cc1)C(=O)N[C@@H](CC(C)C)C(=O)N[C@H](C(=O)N[C@@H](CCC(=O)O)C(=O)NCC(=O)NCC(=O)N1CCC[C@H]1C(=O)N[C@@H](CO)C(=O)N[C@@H](CO)C(=O)NCC(=O)N[C@@H](C)C(=O)N1CCC[C@H]1C(=O)N1CCC[C@H]1C(=O)N1CCC[C@H]1C(=O)N[C@@H](CO)C(N)=O)[C@@H](C)CC)[C@@H](C)CC [Example 191] | – | – | – | – | – | – | – | – | – | – | > 9950 nM | > 9950 nM | 86.2 ± 5.5% | 90 ± 3.29% | 0.866 nM | 105 ± 7.98% | 13.1 nM |
